{
  "source": "patent US8309058B2",
  "about": "“Method for obtaining highly luminescent lanthanide complexes” (Commissariat a l'Energie Atomique, priority 2005, dated 2012)",
  "key": {"[1]": {"test": "potentiometric titration: stability of the Ca(II) complex", "format": "physicochemical", "protocol": "(§1) The solutions of Ca(II) could be prepared by dissolution of CaCI2 in water. The exact concentration of the ion Ca^2+ can be determined by colorimetric titration at a pH 12.5 using as a reference a solution of […] calgonite as an indicator. 20 mL of a solution of […] (3,10-^4 M), acidified (pH 2.5) 1:1 Ln:mixture of ligands ([L] 3.10-^4 M), acidified (pH 2.5) 1:1 Ca:mixture of ligands ([L] 7.10-^5M) are titrated in a cell with a thermostat (25.0° C.+/-0.1° C.) under Argon after addition of a solution of KOH 0.1 M. The ionic load was determined with KCl (μ=00.1 M). The titrations have been conducted with a Metrohm 751 GPD Titrino potentiometer fitted with a glass pH electrode. The electrode system was calibrated before each measurement. The electromotive load is given by the equation E=E°+sp[H^+] wherein E° and s are determined by titration of a known amount de HCl with 0.1 M KOH at μ=0.1 M (KCl), using the zone of the acid for the titration. […] More than 50 data points have been collected for each experiment."}, "[2]": {"settings": "cited from earlier work"}, "[3]": {"settings": "cited from earlier work", "remark": "listed apart in the source"}, "[4]": {"test": "potentiometric titration: stability of the Eu(III) complex", "format": "physicochemical", "text": "as §1, with “For potentiometric titration, the solutions of the complex of Eu(III) may be prepared by dissolution of a determined amount of EuCI3.6H2O in water. […] The exact concentration of the ion Eu^3+ could be determined by colorimetric titration in an acetate buffer (pH=4.5), using as a reference a solution of […] orange xylenol as an indicator. The solutions” for “The solutions”"}, "[5]": {"test": "absorption / excitation spectra", "format": "physicochemical", "text": "(full line) and [Tb(tpaen)] (dotted line) after excitation of the ligand at 274 nm.\nAn efficient energy transfer from the ligand to the metal is put forward by the resemblance between the excitation and absorption spectra of the Europium and Terbium complexes."}, "[6]": {"test": "stability of the Gd complex (pGd)", "format": "physicochemical", "settings": "pH 7.4, [M]total=1 μM, [ligand]total=10 μM"}, "[7]": {"test": "potentiometric titration: de-protonation constants of the ligand", "format": "physicochemical", "settings": "25.0° C., μ=0.1 M KCl, listed as H6tpaen", "text": "Besides, five de-protonation constants [pKa1=2.8 (1), pKa22=3.2 (1), pKa3=3.9 (2), pKa4=5.1 (1) and pKa5=7.8 (1)] may be determined for the ligand H6tpaen by potentiometric titration as well the stability constants of the corresponding complexes of Eu^III and of CaII [log βEuL=15.3(3) for the complex of Eu^III and log βCaL=8.5 (5)].\nFor potentiometric titration, the solutions of the complex of Eu(III) may be prepared by dissolution of a determined amount of EuCI3.6H2O in water. The de-protonation constants of H6tpaen are given by Kai=[H6-iL]^2-1/[H5−iL]^1-i[H]^+, and as already mentioned previously, the values obtained are pKa1=2.8(1), pKa2=3.2(1), pKa3=3.9(2), pKa44=5.1(1) and pKa5=7.8(1).\nThe solutions of Ca(II) could be prepared by dissolution of CaCI2 in water. The exact concentration of the ion Ca^2+ can be determined by colorimetric titration at a pH 12.5 using as a reference a solution of H2Na2edta and calgonite as an indicator. 20 mL of a solution of H4tpaen (3,10−^4 M), acidified (pH˜2.5) 1:1 Ln:mixture of ligands ([L] 3.10−^4 M), acidified (pH˜2.5) 1:1 Ca:mixture of ligands ([L] 7.10−^5M) are titrated in a cell with a thermostat (25.0° C.+/−0.1° C.) under Argon after addition of a solution of KOH 0.1 M.\nThe ionic load was determined with KCl (μ=00.1 M). The titrations have been conducted with a Metrohm 751 GPD Titrino potentiometer fitted with a glass pH electrode. The electrode system was calibrated before each measurement.\nThe electromotive load is given by the equation E=E°+sp[H^+] wherein E° and s are determined by titration of a known amount de HCl with 0.1 M KOH at μ=0.1 M (KCl), using the zone of the acid for the titration. The value used for the ionic product of water was pKw=13.77. More than 50 data points have been collected for each experiment."}, "[8]": {"settings": "pH 7.4, [M]total=1 μM, [ligand]total=10 μM"}},
  "note": "Like-named read-outs stand apart in the source and are kept apart here.",
  "data": [
    {"compound": "O=C([O-])c1cccc(CN(CCN(Cc2cccc(C(=O)O)n2)Cc2cccc(C(=O)O)n2)Cc2cccc(C(=O)[O-])n2)n1.[Ca+2]", "note": "[Catpaen]", "values": [
      {"measurement": "stability constant log βCaL", "setting": "[1]; potentiometric titration, 25.0° C., μ=0.1 M KCl", "value": "8.5 (5)"}
    ]},
    {"compound": "O=C(O)CN(CCN(CC(=O)O)CC(=O)O)CC(=O)O", "note": "[EDTA, tetra acetic diamine ethylene acid]", "values": [
      {"measurement": "pEu, comparison value for EDTA", "setting": "[2]", "value": 14.0}
    ]},
    {"compound": "O=C(O)c1ccccc1C1=c2cc3c4c(c2Oc2c1cc1c5c2CCCN5CCC1)CCC[N+]=4CCC3.[Cl-]", "note": "[rhodamine 101]", "values": [
      {"measurement": "Qabs of the standard", "setting": "[3]; ethanol", "value": 100, "unit": "%"}
    ]},
    {"compound": "O=C(O)c1cccc(CN(CCN(Cc2cccc(C(=O)O)n2)Cc2cccc(C(=O)O)n2)Cc2cccc(C(=O)O)n2)n1", "note": "[tpaen, N,N,N′,N′-tetrakis[(6-carboxypyridine-2-yle)methyl]-ethylene diamine]", "values": [
      {"measurement": "selectivity for Europium with respect to calcium", "setting": "[4]; from pEu versus pCa", "value": "good selectivity regarding Europium with respect to calcium"},
      {"measurement": "pEu (−log [M]free)", "setting": "[4]; [8]", "value": 15.7},
      {"measurement": "λexc", "setting": "[5]", "value": 270, "unit": "nm"},
      {"measurement": "ε", "setting": "[5]; at λexc", "value": 15800, "unit": "M⁻¹ cm⁻¹"},
      {"measurement": "pCa (−log [M]free)", "setting": "[1]; [8]", "value": 8.5},
      {"measurement": "pGd (−log [M]free)", "setting": "[6]", "value": 15.0},
      {"measurement": "de-protonation constant pKa1", "setting": "[7]", "value": "2.8 (1)"},
      {"measurement": "de-protonation constant pKa2", "setting": "[7]", "value": "3.2 (1)"},
      {"measurement": "de-protonation constant pKa3", "setting": "[7]", "value": "3.9 (2)"},
      {"measurement": "de-protonation constant pKa4", "setting": "[7]", "value": "5.1 (1)"},
      {"measurement": "de-protonation constant pKa5", "setting": "[7]", "value": "7.8 (1)"}
    ]},
    {"compound": "cresyl violet", "values": [
      {"measurement": "Qabs of the standard", "setting": "[3]; methanol", "value": 54, "unit": "%"}
    ]}
  ]
}
